Consider one molecule from article PMC6407917, “Identification of GSK3186899/DDD853651 as a Preclinical Development Candidate for the Treatment of Visceral Leishmaniasis” (Journal of Medicinal Chemistry, 2018).

Among the targets are EIF2AK4 (Homo sapiens, UniProt Q9P2K8); RAF1 (Homo sapiens, UniProt P04049); NEK6 (Homo sapiens, UniProt Q9HC98); PRKCD (Homo sapiens, UniProt Q05655); CDC42BPB (Homo sapiens, UniProt Q9Y5S2); PIP4K2A (Homo sapiens, UniProt P48426); MAP3K2 (Homo sapiens, UniProt Q9Y2U5); DCK (Homo sapiens, UniProt P27707); NRK (Homo sapiens, UniProt Q7Z2Y5); MAP3K4 (Homo sapiens, UniProt Q9Y6R4); CAMK2A (Homo sapiens, UniProt Q9UQM7); AURKB (Homo sapiens, UniProt Q96GD4); ACVR1B (Homo sapiens, UniProt P36896); MAP3K7 (Homo sapiens, UniProt O43318); STK3 (Homo sapiens, UniProt Q13188); STK39 (Homo sapiens, UniProt Q9UEW8); NLK (Homo sapiens, UniProt Q9UBE8); HIPK2 (Homo sapiens, UniProt Q9H2X6); CAMK2G (Homo sapiens, UniProt Q13555); DAPK1 (Homo sapiens, UniProt P53355); HCK (Homo sapiens, UniProt P08631).

Assay in all cases: biochemical
Holding throughout (parameters): species or system HEK293/K-562/placenta mixed human extract; Kinobeads chemoproteomic competition binding, quantified by TMT LC-MS/MS, dose response up to 20 uM

What is called IC50 is the concentration that inhibits the measured activity by half.

Chain of STK3 (Q13188 whole entry): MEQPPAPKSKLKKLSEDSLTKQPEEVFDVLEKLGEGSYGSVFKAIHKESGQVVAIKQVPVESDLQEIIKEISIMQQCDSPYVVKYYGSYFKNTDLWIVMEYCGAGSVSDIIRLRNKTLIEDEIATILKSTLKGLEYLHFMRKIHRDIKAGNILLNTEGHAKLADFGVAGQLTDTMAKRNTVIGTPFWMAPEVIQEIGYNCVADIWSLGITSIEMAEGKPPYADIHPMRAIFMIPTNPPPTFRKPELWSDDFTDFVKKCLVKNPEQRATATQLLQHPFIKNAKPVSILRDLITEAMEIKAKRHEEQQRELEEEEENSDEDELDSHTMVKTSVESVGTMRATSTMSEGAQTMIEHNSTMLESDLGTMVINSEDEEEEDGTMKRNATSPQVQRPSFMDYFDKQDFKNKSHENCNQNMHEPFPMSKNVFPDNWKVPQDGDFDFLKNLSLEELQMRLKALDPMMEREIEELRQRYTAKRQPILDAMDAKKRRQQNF
Chain of DAPK1 (P53355 whole entry): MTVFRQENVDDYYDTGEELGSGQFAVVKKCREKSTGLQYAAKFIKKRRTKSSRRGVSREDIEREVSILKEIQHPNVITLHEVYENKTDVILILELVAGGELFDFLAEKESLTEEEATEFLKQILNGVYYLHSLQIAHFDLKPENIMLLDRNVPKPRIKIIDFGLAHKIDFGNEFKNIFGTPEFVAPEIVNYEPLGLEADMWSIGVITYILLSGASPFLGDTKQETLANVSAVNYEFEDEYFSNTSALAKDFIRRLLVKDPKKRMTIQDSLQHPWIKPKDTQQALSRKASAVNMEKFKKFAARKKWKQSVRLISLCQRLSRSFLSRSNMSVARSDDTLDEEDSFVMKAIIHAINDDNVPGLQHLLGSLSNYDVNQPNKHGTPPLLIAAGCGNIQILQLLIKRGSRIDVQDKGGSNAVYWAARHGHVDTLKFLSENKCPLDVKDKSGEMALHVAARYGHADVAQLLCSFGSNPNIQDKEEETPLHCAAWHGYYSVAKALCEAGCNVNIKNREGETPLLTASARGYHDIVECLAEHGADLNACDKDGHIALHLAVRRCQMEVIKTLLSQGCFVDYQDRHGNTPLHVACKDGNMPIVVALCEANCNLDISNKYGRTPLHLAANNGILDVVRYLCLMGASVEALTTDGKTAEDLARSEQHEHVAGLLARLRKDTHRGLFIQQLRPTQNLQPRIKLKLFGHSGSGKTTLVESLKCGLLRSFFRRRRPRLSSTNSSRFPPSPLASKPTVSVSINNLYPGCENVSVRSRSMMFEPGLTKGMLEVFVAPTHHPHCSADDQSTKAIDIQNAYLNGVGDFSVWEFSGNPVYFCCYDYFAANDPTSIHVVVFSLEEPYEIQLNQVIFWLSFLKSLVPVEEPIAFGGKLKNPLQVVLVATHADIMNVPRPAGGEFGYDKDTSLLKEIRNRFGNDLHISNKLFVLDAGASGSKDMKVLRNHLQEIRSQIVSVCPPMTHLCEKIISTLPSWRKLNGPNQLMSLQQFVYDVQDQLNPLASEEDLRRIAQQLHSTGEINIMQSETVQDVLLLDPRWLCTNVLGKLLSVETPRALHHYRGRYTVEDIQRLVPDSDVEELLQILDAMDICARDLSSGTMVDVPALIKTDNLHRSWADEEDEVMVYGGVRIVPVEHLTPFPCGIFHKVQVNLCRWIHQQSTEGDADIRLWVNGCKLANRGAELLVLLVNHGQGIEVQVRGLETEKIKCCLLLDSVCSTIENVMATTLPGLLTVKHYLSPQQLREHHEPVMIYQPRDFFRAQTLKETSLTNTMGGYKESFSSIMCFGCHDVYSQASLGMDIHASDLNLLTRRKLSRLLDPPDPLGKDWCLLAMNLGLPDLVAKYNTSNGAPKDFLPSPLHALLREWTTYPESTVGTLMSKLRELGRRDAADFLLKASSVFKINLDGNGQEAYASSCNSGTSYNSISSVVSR
Chain of EIF2AK4 (Q9P2K8 whole entry): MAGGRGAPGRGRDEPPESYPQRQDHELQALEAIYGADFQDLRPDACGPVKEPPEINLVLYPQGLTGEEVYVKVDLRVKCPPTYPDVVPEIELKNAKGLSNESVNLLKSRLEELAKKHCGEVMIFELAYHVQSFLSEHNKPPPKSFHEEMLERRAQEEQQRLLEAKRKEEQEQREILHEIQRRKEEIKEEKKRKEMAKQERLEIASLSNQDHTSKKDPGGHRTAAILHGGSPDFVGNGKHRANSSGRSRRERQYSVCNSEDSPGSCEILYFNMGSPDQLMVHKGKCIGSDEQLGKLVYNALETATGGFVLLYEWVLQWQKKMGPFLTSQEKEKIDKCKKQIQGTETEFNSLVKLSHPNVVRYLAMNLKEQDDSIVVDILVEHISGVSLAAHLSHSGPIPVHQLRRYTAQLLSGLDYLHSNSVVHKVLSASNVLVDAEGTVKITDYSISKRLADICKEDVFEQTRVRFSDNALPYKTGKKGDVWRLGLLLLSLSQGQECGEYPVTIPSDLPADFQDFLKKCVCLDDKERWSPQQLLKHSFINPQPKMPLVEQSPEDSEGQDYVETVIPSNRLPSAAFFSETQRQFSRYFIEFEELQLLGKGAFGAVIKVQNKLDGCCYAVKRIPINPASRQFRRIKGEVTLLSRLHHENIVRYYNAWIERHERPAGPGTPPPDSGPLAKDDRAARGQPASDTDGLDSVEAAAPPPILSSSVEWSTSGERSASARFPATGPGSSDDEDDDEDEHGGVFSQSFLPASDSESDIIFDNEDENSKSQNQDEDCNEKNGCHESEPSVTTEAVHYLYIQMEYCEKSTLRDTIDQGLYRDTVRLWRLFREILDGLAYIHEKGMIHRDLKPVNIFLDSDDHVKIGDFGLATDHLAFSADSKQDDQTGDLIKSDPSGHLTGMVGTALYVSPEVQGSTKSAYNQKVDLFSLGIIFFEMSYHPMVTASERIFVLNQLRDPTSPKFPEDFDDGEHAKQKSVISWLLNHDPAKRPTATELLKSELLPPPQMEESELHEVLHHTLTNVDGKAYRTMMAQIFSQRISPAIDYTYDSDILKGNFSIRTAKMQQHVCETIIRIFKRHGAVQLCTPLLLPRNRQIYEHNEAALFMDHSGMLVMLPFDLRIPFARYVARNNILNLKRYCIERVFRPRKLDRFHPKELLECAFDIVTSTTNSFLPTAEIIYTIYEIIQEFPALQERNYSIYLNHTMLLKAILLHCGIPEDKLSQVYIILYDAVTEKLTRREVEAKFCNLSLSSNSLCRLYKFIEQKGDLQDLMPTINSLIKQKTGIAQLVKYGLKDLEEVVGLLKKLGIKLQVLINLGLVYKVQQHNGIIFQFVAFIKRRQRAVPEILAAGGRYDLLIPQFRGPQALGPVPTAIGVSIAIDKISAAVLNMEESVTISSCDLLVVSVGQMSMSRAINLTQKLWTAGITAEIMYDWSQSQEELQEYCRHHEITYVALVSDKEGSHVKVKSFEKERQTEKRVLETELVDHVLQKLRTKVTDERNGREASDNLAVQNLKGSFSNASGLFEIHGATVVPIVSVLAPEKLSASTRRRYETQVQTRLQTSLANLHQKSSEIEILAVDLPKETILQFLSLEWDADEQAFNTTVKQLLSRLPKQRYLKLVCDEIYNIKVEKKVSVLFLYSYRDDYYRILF
Chain of NEK6 (Q9HC98 whole entry): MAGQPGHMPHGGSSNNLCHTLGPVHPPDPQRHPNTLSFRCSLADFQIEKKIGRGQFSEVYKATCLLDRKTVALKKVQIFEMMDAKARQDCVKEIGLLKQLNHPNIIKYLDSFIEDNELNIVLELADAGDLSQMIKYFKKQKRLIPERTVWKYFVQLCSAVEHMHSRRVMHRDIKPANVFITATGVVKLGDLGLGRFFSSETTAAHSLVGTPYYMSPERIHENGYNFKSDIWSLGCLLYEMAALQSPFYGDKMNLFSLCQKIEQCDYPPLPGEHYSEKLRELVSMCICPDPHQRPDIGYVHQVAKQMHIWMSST
Chain of PIP4K2A (P48426 whole entry): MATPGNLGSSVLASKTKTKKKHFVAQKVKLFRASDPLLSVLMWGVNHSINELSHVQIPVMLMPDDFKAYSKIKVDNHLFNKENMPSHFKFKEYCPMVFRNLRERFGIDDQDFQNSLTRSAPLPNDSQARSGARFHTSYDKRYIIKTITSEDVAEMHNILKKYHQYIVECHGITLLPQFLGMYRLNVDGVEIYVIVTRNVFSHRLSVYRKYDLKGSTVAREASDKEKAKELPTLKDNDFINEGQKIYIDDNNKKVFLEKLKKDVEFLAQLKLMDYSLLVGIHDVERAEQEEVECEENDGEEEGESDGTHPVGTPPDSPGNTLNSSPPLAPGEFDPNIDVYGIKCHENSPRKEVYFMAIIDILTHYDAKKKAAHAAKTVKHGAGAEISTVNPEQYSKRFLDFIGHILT
Chain of AURKB (Q96GD4 whole entry): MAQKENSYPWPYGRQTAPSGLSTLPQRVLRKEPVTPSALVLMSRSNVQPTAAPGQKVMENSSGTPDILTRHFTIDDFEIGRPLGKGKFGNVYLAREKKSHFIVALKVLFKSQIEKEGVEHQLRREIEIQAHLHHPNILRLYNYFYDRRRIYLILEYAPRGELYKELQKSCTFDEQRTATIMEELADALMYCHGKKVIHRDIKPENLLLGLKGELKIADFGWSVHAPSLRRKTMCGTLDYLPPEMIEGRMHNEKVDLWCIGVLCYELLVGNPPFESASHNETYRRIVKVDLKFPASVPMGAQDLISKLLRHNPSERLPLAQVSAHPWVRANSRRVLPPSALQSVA
Chain of DCK (P27707 whole entry): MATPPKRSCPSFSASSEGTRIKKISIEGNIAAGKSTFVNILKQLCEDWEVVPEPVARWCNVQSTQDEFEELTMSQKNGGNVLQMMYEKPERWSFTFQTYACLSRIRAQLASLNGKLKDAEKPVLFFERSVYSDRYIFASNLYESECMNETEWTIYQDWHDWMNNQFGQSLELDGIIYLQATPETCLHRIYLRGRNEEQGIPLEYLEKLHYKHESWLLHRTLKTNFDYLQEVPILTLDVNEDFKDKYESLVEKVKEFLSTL

With `COc1nc(N[C@H]2CC[C@H](NS(=O)(=O)CC(C)C)CC2)nc2[nH]nc(N3CCOC[C@H]3C)c12` [compound 39, N-(trans-4-((4-Methoxy-3-((R)-3-methylmorpholino)-1H-pyrazolo[3,4-d]pyrimidin-6-yl)amino)cyclohexyl)-2-methylpropane-1-sulfonamide], the 50% inhibitory concentration (IC50) at EIF2AK4, on RAF1, at NEK6, at PRKCD, on CDC42BPB and on PIP4K2A was no less than 20 µM each time. In addition, the IC50 at MAP3K2, on DCK, on NRK, at MAP3K4, on CAMK2A and on AURKB was no less than 20 µM throughout. Besides, the IC50 on ACVR1B is no less than 20 µM; at MAP3K7, no less than 20 µM; on STK3 it was no less than 20 µM; at STK39, no less than 20 µM; on NLK, 3.5 µM; at HIPK2, no less than 20 µM. The 50% inhibitory concentration (IC50) at CAMK2G, at DAPK1 and at HCK was no less than 20 µM each time.
